How the values were obtained:
Experiment in all cases: normalised viability (% of control), CellTiter-Blue; higher = more viable cells (about 100 = DMSO control)
HCC1599 [1] = details: incubation time: 72 h
In short: (§1)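 The reported figure is normalised viability at a single listed concentration of the series. Breast cancer cell lines (20 µl suspension) went onto 384-well plates holding compound in 5 µl medium for 72 h. CellTiter-Blue (2.5 µl, 2 h, 37 °C) was read by fluorescence at 560/590 nm, and each plate was scaled to vehicle at 100 and a positive kill control at 0.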

BT-549 [2] = details: incubation time: 72 h
In short: as §1

HDQ-P1 [3] = details: incubation time: 72 h
In short: as §1

CAL-148 [4] = details: incubation time: 72 h
In short: as §1

MDA-MB-231 [5] = details: incubation time: 72 h
In short: as §1

CAL-120 [6] = details: incubation time: 72 h
In short: as §1

SK-BR-3 [7] = details: incubation time: 72 h
In short: as §1

MDA-MB-468 [8] = details: incubation time: 72 h
In short: as §1

BT-474 [9] = details: incubation time: 72 h
In short: as §1

CAL-51 [10] = details: incubation time: 72 h
In short: as §1

HCC1143 [11] = details: incubation time: 72 h
In short: as §1

HCC1937 [12] = details: incubation time: 72 h
In short: as §1

MFM-223 [13] = details: incubation time: 72 h
In short: as §1

Hs578T [14] = details: incubation time: 72 h
In short: as §1

CAL-85-1 [15] = details: incubation time: 72 h
In short: as §1

MDA-MB-436 [16] = details: incubation time: 72 h
In short: as §1

DU-4475 [17] = details: incubation time: 72 h
In short: as §1

MDA-MB-453 [18] = details: incubation time: 72 h
In short: as §1

HCC1599 [19] = details: 50 nM; incubation time: 72 h
Description: (§2)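 DSRT, CellTiter-Blue viability, 72 h incubation. Signal is normalised to DMSO and benzethonium chloride controls. Value is the normalised response at dose 3.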

BT-549 [20] = details: 50 nM; incubation time: 72 h
Description: as §2

HDQ-P1 [21] = details: 5 nM; incubation time: 72 h
Description: as §2

CAL-148 [22] = details: 5 nM; incubation time: 72 h
Description: as §2

MDA-MB-231 [23] = details: 50 nM; incubation time: 72 h
Description: as §2

CAL-120 [24] = details: 50 nM; incubation time: 72 h
Description: as §2

SK-BR-3 [25] = details: 50 nM; incubation time: 72 h
Description: as §2

MDA-MB-468 [26] = details: 50 nM; incubation time: 72 h
Description: as §2

BT-474 [27] = details: 50 nM; incubation time: 72 h
Description: as §2

CAL-51 [28] = details: 5 nM; incubation time: 72 h
Description: as §2

HCC1143 [29] = details: 50 nM; incubation time: 72 h
Description: as §2

HCC1937 [30] = details: 50 nM; incubation time: 72 h
Description: as §2

MFM-223 [31] = details: 50 nM; incubation time: 72 h
Description: as §2

Hs578T [32] = details: 50 nM; incubation time: 72 h
Description: as §2

CAL-85-1 [33] = details: 5 nM; incubation time: 72 h
Description: as §2

MDA-MB-436 [34] = details: 50 nM; incubation time: 72 h
Description: as §2

DU-4475 [35] = details: 5 nM; incubation time: 72 h
Description: as §2

MDA-MB-453 [36] = details: 5 nM; incubation time: 72 h
Description: as §2

CC[C@@]1(O)C(=O)OCc2c1cc1n(c2=O)Cc2cc3ccccc3nc2-1 [Camptothecin]
normalised viability (HCC1599 [1]; 5 nM): 108%
normalised viability (HCC1599 [1]; 500 nM): 60.1%
normalised viability (HCC1599 [1]; 5000 nM): 29.5%
normalised viability (BT-549 [2]; 5 nM): 82.1%
normalised viability (BT-549 [2]; 500 nM): 39.3%
normalised viability (BT-549 [2]; 5000 nM): 20.7%
normalised viability (HDQ-P1 [3]; 1.5 nM): 90.7%
normalised viability (HDQ-P1 [3]; 15 nM): 83.2%
normalised viability (HDQ-P1 [3]; 50 nM): 65.9%
normalised viability (CAL-148 [4]; 1.5 nM): 102%
normalised viability (CAL-148 [4]; 15 nM): 47.9%
normalised viability (CAL-148 [4]; 50 nM): 30.9%
normalised viability (MDA-MB-231 [5]; 5 nM): 98%
normalised viability (MDA-MB-231 [5]; 500 nM): 51.8%
normalised viability (MDA-MB-231 [5]; 5000 nM): 22.6%
normalised viability (CAL-120 [6]; 5 nM): 81.5%
normalised viability (CAL-120 [6]; 500 nM): 22.6%
normalised viability (CAL-120 [6]; 5000 nM): 10.3%
normalised viability (SK-BR-3 [7]; 5 nM): 100%
normalised viability (SK-BR-3 [7]; 500 nM): 20.6%
normalised viability (SK-BR-3 [7]; 5000 nM): 8%
normalised viability (MDA-MB-468 [8]; 5 nM): 93%
normalised viability (MDA-MB-468 [8]; 500 nM): 12.1%
normalised viability (MDA-MB-468 [8]; 5000 nM): 6.62%
normalised viability (BT-474 [9]; 5 nM): 101%
normalised viability (BT-474 [9]; 500 nM): 69.9%
normalised viability (BT-474 [9]; 5000 nM): 60.3%
normalised viability (CAL-51 [10]; 1.5 nM): 103%
normalised viability (CAL-51 [10]; 15 nM): 57%
normalised viability (CAL-51 [10]; 50 nM): 31.1%
normalised viability (HCC1143 [11]; 5 nM): 78.3%
normalised viability (HCC1143 [11]; 500 nM): 33.5%
normalised viability (HCC1143 [11]; 5000 nM): 22.9%
normalised viability (HCC1937 [12]; 5 nM): 92.6%
normalised viability (HCC1937 [12]; 500 nM): 29.6%
normalised viability (HCC1937 [12]; 5000 nM): 25.5%
normalised viability (MFM-223 [13]; 5 nM): 108%
normalised viability (MFM-223 [13]; 500 nM): 79.8%
normalised viability (MFM-223 [13]; 5000 nM): 32.3%
normalised viability (Hs578T [14]; 5 nM): 112%
normalised viability (Hs578T [14]; 500 nM): 59.6%
normalised viability (Hs578T [14]; 5000 nM): 11.5%
normalised viability (CAL-85-1 [15]; 1.5 nM): 98%
normalised viability (CAL-85-1 [15]; 15 nM): 87.3%
normalised viability (CAL-85-1 [15]; 50 nM): 74.8%
normalised viability (MDA-MB-436 [16]; 5 nM): 97%
normalised viability (MDA-MB-436 [16]; 500 nM): 31.2%
normalised viability (MDA-MB-436 [16]; 5000 nM): 10.3%
normalised viability (DU-4475 [17]; 1.5 nM): 117%
normalised viability (DU-4475 [17]; 15 nM): 60.2%
normalised viability (DU-4475 [17]; 50 nM): 44.7%
normalised viability (MDA-MB-453 [18]; 1.5 nM): 114%
normalised viability (MDA-MB-453 [18]; 15 nM): 105%
normalised viability (MDA-MB-453 [18]; 50 nM): 77.4%
normalised viability (HCC1599 [19]): 90.2%
normalised viability (BT-549 [20]): 67.3%
normalised viability (HDQ-P1 [21]): 99.4%
normalised viability (CAL-148 [22]): 70.3%
normalised viability (MDA-MB-231 [23]): 78.9%
normalised viability (CAL-120 [24]): 65.5%
normalised viability (SK-BR-3 [25]): 49.7%
normalised viability (MDA-MB-468 [26]): 46.8%
normalised viability (BT-474 [27]): 90.8%
normalised viability (CAL-51 [28]): 99%
normalised viability (HCC1143 [29]): 50.9%
normalised viability (HCC1937 [30]): 45.8%
normalised viability (MFM-223 [31]): 93.8%
normalised viability (Hs578T [32]): 81.8%
normalised viability (CAL-85-1 [33]): 93.7%
normalised viability (MDA-MB-436 [34]): 87.9%
normalised viability (DU-4475 [35]): 82.2%
normalised viability (MDA-MB-453 [36]): 103%
